Reference: patent US6500443B1, “Delivery of a sacrificial substrate to inhibit protease permeation into skin” (Kimberly-Clark Worldwide, Inc., priority 1999, dated 2002)

Conditions: excised skins, modified FRANZ diffusion cells, over a 36 hour period, from treated fabric
Procedure: The fabrics were then tested for topical delivery of the zinc salt using excised skins in modified FRANZ diffusion cells. The amount of zinc accumulating and penetrating the skin was determined over a 36 hour period.

## zinc sulfate monohydrate
  accumulation of zinc in skin: 1311 μg/g dry weight of skin
  penetration of zinc through skin: 3.2 μg/cm^2/hr
